Measured values published in ChEMBL document CHEMBL5338791, “Discovery of Novel 1,3-Diphenylpyrazine Derivatives as Potent S-Phase Kinase-Associated Protein 2 (Skp2) Inhibitors for the Treatment of Cancer” (J Med Chem, 2023).
Calls of active or inactive are those of the source. The rule behind the calls is not given here.

Columns and labels:
MGC-803 [1] = test: Antitumor activity against human MGC-803 cells assessed as cell growth inhibition incubated for 72 hrs by MTT assay; type: functional, cell-based; details: MGC-803, 72 h
[2] = Antitumor activity against human EC1 cells assessed as cell growth inhibition incubated for 72 hrs by MTT assay; type: functional, cell-based; details: EC1, 72 h
NCI-H1299 = test: Antitumor activity against human NCI-H1299 cells overexpressing Skp2 assessed as cell growth inhibition incubated for 72 hrs by MTT assay; type: functional, cell-based; details: NCI-H1299, 72 h
PC-9 = test: Antitumor activity against human PC-9 cells overexpressing Skp2 assessed as cell growth inhibition incubated for 72 hrs by MTT assay; type: functional, cell-based; details: PC-9, 72 h
A549 = test: Antitumor activity against human A549 cells with low Skp2 expression assessed as cell growth inhibition incubated for 72 hrs by MTT assay; type: functional, cell-based; details: A549, 72 h
MGC-803 [3] = test: Upregulation of p21 level in human MGC-803 cells upto 10 uM by Western blot analysis; type: functional, cell-based; details: time 48.0 hrs, TDE = time-dependent effect
MGC-803 [4] = test: Inhibition of colony formation in human MGC-803 cells at 0.5 to 2 uM incubated for 10 days by crystal violet staining based microscopy; type: functional, cell-based; details: dose 0.5-2 µM, time 10.0 day
PC-3 [5] = test: Induction of cell cycle arrest in human PC-3 cells assessed as accumulation of cells at G2 phase at 2.5 uM incubated for 48 hrs by flow cytometry (reference value: 22.59 %); type: functional
MGC-803 [6] = test: Induction of cell cycle arrest in human MGC-803 cells assessed as accumulation of cells at G2 phase at 2.5 uM incubated for 48 hrs by flow cytometry (reference value: 21.35 %); type: functional
MGC-803 [7] = test: Induction of cell cycle arrest in human MGC-803 cells assessed as accumulation of cells at G2 phase at 5 uM incubated for 48 hrs by flow cytometry (reference value: 21.35 %); type: functional
MGC-803 [8] = test: Induction of cell cycle arrest in human MGC-803 cells assessed as accumulation of cells at S phase at 10 uM incubated for 48 hrs by flow cytometry (reference value: 22.72 %); type: functional
PC-3 [9] = test: Induction of cell cycle arrest in human PC-3 cells assessed as accumulation of cells at G1 phase at 10 uM incubated for 6 hrs by flow cytometry (reference value: 56.81 %); type: functional
PC-3 [10] = test: Induction of cell cycle arrest in human PC-3 cells assessed as accumulation of cells at S phase at 10 uM incubated for 12 hrs by flow cytometry (reference value: 19.7 %); type: functional
PC-3 [11] = test: Induction of cell cycle arrest in human PC-3 cells assessed as accumulation of cells at G2 phase at 10 uM incubated for 36 hrs by flow cytometry (reference value: 19.34 %); type: functional
PC-3 [12] = test: Induction of cell cycle arrest in human PC-3 cells assessed as accumulation of cells at G1 phase at 10 uM incubated for 48 hrs by flow cytometry (reference value: 56.81 %); type: functional
MGC-803 [13] = test: Induction of cell cycle arrest in human MGC-803 cells assessed as accumulation of cells at G2 phase at 10 uM incubated for 6 hrs by flow cytometry (reference value: 20.64 %); type: functional
MGC-803 [14] = test: Induction of cell cycle arrest in human MGC-803 cells assessed as accumulation of cells at G1 phase at 10 uM incubated for 48 hrs by flow cytometry (reference value: 57.09 %); type: functional
MGC-803 [15] = test: Induction of cell cycle arrest in human MGC-803 cells assessed as accumulation of cells at S phase at 10 uM incubated for 48 hrs by flow cytometry (reference value: 20.41 %); type: functional
PC-3 [16] = test: Induction of apoptosis in human PC-3 cells assessed as nuclear fragmentation incubated for 48 hrs; type: functional, cell-based; details: dose <= 10.0 µM
PC-3 [17] = test: Induction of apoptosis in human PC-3 cells assessed as nuclear condensation incubated for 48 hrs; type: functional, cell-based; details: dose <= 10.0 µM
PC-3 [18] = test: Induction of apoptosis in human PC-3 cells assessed as early apoptotic cells at 2.5 uM incubated for 48 hrs by annexin V-FITC/PI staining based flow cytometry (reference value: 0.85 %); type: functional
PC-3 [19] = test: Induction of apoptosis in human PC-3 cells assessed as early apoptotic cells at 10 uM incubated for 48 hrs by annexin V-FITC/PI staining based flow cytometry (reference value: 0.85 %); type: functional
MGC-803 [20] = test: Induction of apoptosis in human MGC-803 cells assessed as viable cells at 2.5 uM incubated for 48 hrs by annexin V-FITC/PI staining based flow cytometry (reference value: 98 %); type: functional; details: read-out: Activity
MGC-803 [21] = test: Induction of apoptosis in human MGC-803 cells assessed as early apoptotic cells at 2.5 uM incubated for 48 hrs by annexin V-FITC/PI staining based flow cytometry (reference value: 0.21 %); type: functional
MGC-803 [22] = test: Induction of apoptosis in human MGC-803 cells assessed as early apoptotic cells at 10 uM incubated for 48 hrs by annexin V-FITC/PI staining based flow cytometry (reference value: 0.21 %); type: functional
PC-3 [23] = test: Antitumor activity against human PC-3 cells xenografted in NOD-SCID mouse model assessed as tumor growth inhibition at 25 mg/kg, IG administered once every 2 days for 21 days relative to control; type: functional; details: PC-3, po, 504 h, time 21 day, read-out: TGI
[24] = Toxicity in NOD-SCID mouse model xenografted with human PC-3 cells assessed as body weight change at 10 to 50 mg/kg, IG administered once every 2 days for 21 days; type: organism-based; details: in vivo, po, 504 h, dose 10-50 mg/kg, time 21 day
[25] = Toxicity in NOD-SCID mouse model xenografted with human PC-3 cells assessed as drug tolerance at 10 to 50 mg/kg, IG administered once every 2 days for 21 days; type: organism-based; details: in vivo, po, 504 h, dose 10-50 mg/kg, time 21 day
[26] = Toxicity in NOD-SCID mouse model xenografted with human PC-3 cells assessed as change in kidney histology at 10 to 50 mg/kg, IG administered once every 2 days for 21 days by H and E staining based analysis; type: organism-based; details: in vivo, po, 504 h, dose 10-50 mg/kg, time 21 day
[27] = Toxicity in NOD-SCID mouse model xenografted with human PC-3 cells assessed as change in lung histology at 10 to 50 mg/kg, IG administered once every 2 days for 21 days by H and E staining based analysis; type: organism-based; details: in vivo, po, 504 h, dose 10-50 mg/kg, time 21 day
MGC-803 [28] = test: Antitumor activity against human MGC-803 cells xenografted in NOD-SCID mouse model assessed as p21 accumulation at 10 to 50 mg/kg, IG administered once every 2 days for 21 days by Western blot analysis; type: functional, organism-based; details: dose 10-50 mg/kg, time 21.0 day
[29] = AUClast in plasma of NOD-SCID mouse model xenografted with human PC-3 cells at 25 mg/kg, IG measured upto 48 hrs by LC-MS/MS analysis; type: ADME, organism-based; design: dose 25 mg/kg, time < 48 hrs, route ig; details: po
[30] = AUC (infinity) in plasma of NOD-SCID mouse model xenografted with human PC-3 cells at 25 mg/kg, IG measured upto 48 hrs by LC-MS/MS analysis; type: ADME, organism-based; design: time < 48 hrs, dose 25 mg/kg, route ig; details: po
[31] = Apparent volume of distribution in tumor of NOD-SCID mouse model xenografted with human PC-3 cells at 25 mg/kg, IG measured upto 48 hrs by LC-MS/MS analysis; type: ADME, organism-based, Neoplasm; details: in vivo, po

Q: For O=C(CCl)NC1CCN(c2cnc(-c3ccccc3)c(-c3ccccc3)n2)CC1, which IC50 (MGC-803 [1]) is on record?
A: 7 µM

Q: And the IC50 [2]?
A: 7 µM

Q: And the IC50 (NCI-H1299)?
A: 3.6 µM

Q: And the IC50 (PC-9)?
A: 8.1 µM

Q: And the IC50 (A549)?
A: 18.2 µM

Q: And the Activity (MGC-803 [3])?
A: Tde

Q: What about the inhibition (MGC-803 [4]) of the same compound?
A: Active

Q: What about the Activity (PC-3 [5]) of the same compound?
A: 18.47%

Q: What about the Activity (MGC-803 [6]) of the same compound?
A: 23.15%

Q: And the Activity (MGC-803 [7])?
A: 18.74%

Q: What about the Activity (MGC-803 [8]) of the same compound?
A: 45.07%

Q: And the Activity (PC-3 [9])?
A: 46.91%

Q: What about the Activity (PC-3 [10]) of the same compound?
A: 32.51%

Q: And the Activity (PC-3 [11])?
A: 20.75%

Q: What about the Activity (PC-3 [12]) of the same compound?
A: 35.47%

Q: What about the Activity (MGC-803 [13]) of the same compound?
A: 17.82%

Q: And the Activity (MGC-803 [14])?
A: 35.53%

Q: What about the Activity (MGC-803 [15]) of the same compound?
A: 38.76%

Q: What about the Activity (PC-3 [16]) of the same compound?
A: Dose-Dependent Effect

Q: And the Activity (PC-3 [17])?
A: Dose-Dependent Effect

Q: What about the Activity (PC-3 [18]) of the same compound?
A: 0.96%

Q: And the Activity (PC-3 [19])?
A: 0.2%

Q: And the viability at 2.5 µM (MGC-803 [20])?
A: 89.6%

Q: And the Activity (MGC-803 [21])?
A: 2.85%

Q: What about the Activity (MGC-803 [22]) of the same compound?
A: 3.41%

Q: What about the inhibition in vivo at 25 mg/kg (PC-3 [23]) of the same compound?
A: 71.9%

Q: What about the Activity [24] of the same compound?
A: Non-Toxic

Q: What about the Activity [25] of the same compound?
A: Non-Toxic

Q: And the Activity [26]?
A: Non-Toxic

Q: And the Activity [27]?
A: Non-Toxic

Q: And the Activity (MGC-803 [28])?
A: Active

Q: And the AUC(0-t) at 48 h [29]?
A: 3230 ng·h/mL

Q: And the AUC(0-inf) [30]?
A: 3550 ng·h/mL

Q: And the Vz [31]?
A: 170.8 L/kg
